What was measured:
Assay in all cases: KINOMEscan competition binding
Settings in all cases: compound 10.0 µM
TESK1 (human) = TESK1 (human) (UniProt Q15569)
PLK4 (human) = PLK4 (human) (UniProt O00444)
NEK5 (human) = NEK5 (human) (UniProt Q6P3R8)
PAK1 (human) = PAK1 (human) (UniProt Q13153)
RIOK3 (human) = RIOK3 (human) (UniProt O14730)
MINK1 (human) = MINK1 (human) (UniProt Q8N4C8)
SLK (human) = SLK (human) (UniProt Q9H2G2)
[1] = test system: RET (human), P07949 [V804M]
TNK1 (human) = TNK1 (human) (UniProt Q13470)
[2] = test system: FLT3 (human), P36888 [D835H]
MAP2K6 (human) = MAP2K6 (human) (UniProt P52564)
TXK (human) = TXK (human) (UniProt P42681)
Chain of TXK (human) (P42681 whole entry, looked up): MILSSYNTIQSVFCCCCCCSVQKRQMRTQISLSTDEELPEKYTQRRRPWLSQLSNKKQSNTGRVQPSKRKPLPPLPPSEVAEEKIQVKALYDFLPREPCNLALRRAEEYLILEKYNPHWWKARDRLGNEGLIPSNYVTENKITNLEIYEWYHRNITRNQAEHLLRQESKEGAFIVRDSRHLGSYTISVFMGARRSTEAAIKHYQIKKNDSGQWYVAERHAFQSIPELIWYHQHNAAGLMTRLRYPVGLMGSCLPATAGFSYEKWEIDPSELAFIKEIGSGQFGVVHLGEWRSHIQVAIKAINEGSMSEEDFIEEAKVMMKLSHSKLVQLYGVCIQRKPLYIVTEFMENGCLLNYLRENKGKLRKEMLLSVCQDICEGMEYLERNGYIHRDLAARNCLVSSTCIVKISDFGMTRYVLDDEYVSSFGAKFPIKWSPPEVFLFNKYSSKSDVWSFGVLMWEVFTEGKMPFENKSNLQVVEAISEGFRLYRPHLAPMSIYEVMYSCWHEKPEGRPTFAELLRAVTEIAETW

FYN (human) = FYN (human) (UniProt P06241)
Chain of FYN (human) (P06241 whole entry, looked up): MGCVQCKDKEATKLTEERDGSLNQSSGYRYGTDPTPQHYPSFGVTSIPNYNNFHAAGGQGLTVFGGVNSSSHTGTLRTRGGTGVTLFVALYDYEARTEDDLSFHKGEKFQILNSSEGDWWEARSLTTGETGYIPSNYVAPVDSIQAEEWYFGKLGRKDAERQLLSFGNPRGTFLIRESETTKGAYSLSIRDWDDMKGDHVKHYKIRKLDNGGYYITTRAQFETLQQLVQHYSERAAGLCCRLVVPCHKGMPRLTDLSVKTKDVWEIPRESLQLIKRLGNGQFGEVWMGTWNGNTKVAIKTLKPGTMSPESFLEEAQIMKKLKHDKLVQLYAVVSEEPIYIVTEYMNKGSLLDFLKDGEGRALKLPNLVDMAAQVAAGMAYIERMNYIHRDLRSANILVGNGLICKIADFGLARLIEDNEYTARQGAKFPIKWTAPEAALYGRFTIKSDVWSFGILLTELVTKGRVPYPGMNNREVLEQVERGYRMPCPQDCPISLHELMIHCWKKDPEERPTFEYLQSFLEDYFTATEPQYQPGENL

PRKACA (human) = PRKACA (human) (UniProt P17612)
LYN (human) = LYN (human) (UniProt P07948)
MARK4 (human) = MARK4 (human) (UniProt Q96L34)
Chain of MARK4 (human) (Q96L34 whole entry, looked up): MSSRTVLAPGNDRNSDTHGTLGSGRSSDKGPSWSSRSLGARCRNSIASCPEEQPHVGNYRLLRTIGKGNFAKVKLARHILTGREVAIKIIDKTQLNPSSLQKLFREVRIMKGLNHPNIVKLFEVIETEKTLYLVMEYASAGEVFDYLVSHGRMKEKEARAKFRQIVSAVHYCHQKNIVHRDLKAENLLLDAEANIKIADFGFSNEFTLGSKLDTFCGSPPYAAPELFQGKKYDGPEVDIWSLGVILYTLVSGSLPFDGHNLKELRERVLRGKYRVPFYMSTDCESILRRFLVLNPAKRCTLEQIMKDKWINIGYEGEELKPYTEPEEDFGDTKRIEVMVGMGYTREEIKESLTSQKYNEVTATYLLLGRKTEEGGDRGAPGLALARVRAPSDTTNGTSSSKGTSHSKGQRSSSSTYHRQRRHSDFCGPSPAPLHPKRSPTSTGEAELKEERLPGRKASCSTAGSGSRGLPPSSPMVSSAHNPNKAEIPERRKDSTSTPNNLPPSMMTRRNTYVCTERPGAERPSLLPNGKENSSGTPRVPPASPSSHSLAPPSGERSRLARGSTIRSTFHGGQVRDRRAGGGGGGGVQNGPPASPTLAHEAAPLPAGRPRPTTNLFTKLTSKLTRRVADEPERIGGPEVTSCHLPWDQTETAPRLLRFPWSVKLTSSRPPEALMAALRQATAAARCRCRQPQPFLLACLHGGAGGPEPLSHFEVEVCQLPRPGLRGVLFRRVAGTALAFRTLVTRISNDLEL

CDKL2 (human) = CDKL2 (human) (UniProt Q92772)
Chain of CDKL2 (human) (Q92772 whole entry, looked up): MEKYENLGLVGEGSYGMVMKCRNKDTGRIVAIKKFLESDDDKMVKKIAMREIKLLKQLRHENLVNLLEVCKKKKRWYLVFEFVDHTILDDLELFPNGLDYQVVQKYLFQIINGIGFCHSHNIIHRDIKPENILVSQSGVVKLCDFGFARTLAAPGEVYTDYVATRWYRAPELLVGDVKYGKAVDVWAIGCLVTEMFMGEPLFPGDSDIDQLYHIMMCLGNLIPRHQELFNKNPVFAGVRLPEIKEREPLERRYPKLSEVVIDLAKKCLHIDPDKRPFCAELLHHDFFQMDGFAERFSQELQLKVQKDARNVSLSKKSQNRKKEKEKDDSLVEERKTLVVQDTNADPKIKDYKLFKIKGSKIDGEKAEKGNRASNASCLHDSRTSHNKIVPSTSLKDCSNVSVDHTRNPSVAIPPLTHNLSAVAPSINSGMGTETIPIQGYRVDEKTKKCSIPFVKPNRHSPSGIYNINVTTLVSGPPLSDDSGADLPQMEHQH

CDK15 (human) = CDK15 (human) (UniProt Q96Q40)
MAP4K4 (human) = MAP4K4 (human) (UniProt O95819)
MYO3B (human) = MYO3B (human) (UniProt Q8WXR4)
BRSK2 (human) = BRSK2 (human) (UniProt Q8IWQ3)
EPHA4 (human) = EPHA4 (human) (UniProt P54764)
MAP4K3 (human) = MAP4K3 (human) (UniProt Q8IVH8)
ITK (human) = ITK (human) (UniProt Q08881)
CSNK1E (human) = CSNK1E (human) (UniProt P49674)
ACVR2A (human) = ACVR2A (human) (UniProt P27037)
ROS1 (human) = ROS1 (human) (UniProt P08922)
PRKACB (human) = PRKACB (human) (UniProt P22694)
CDC42BPA (human) = CDC42BPA (human) (UniProt Q5VT25)
SYK (human) = SYK (human) (UniProt P43405)
FGFR4 (human) = FGFR4 (human) (UniProt P22455)
RAF1 (human) = RAF1 (human) (UniProt P04049)
Chain of RAF1 (human) (P04049 whole entry, looked up): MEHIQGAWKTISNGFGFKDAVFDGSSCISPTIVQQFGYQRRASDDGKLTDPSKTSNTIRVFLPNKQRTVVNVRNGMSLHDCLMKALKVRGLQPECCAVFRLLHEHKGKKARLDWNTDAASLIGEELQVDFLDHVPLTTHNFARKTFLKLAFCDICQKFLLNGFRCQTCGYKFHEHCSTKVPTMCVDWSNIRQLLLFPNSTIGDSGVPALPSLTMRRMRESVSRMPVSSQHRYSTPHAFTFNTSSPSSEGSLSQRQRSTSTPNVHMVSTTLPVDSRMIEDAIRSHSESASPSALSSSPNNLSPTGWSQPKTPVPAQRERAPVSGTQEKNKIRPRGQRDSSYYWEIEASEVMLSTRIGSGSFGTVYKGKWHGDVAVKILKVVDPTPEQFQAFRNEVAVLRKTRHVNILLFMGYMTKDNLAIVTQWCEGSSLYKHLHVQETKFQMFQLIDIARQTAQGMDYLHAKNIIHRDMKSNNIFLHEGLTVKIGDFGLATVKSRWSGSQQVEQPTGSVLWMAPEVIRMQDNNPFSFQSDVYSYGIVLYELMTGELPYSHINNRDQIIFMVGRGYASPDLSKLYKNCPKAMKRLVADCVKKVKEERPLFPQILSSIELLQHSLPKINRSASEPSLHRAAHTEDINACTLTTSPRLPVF

PTK2 (human) = PTK2 (human) (UniProt Q05397)
FGFR1 (human) = FGFR1 (human) (UniProt P11362)
PKN1 (human) = PKN1 (human) (UniProt Q16512)
TNIK (human) = TNIK (human) (UniProt Q9UKE5)
ULK1 (human) = ULK1 (human) (UniProt O75385)
Chain of ULK1 (human) (O75385 whole entry, looked up): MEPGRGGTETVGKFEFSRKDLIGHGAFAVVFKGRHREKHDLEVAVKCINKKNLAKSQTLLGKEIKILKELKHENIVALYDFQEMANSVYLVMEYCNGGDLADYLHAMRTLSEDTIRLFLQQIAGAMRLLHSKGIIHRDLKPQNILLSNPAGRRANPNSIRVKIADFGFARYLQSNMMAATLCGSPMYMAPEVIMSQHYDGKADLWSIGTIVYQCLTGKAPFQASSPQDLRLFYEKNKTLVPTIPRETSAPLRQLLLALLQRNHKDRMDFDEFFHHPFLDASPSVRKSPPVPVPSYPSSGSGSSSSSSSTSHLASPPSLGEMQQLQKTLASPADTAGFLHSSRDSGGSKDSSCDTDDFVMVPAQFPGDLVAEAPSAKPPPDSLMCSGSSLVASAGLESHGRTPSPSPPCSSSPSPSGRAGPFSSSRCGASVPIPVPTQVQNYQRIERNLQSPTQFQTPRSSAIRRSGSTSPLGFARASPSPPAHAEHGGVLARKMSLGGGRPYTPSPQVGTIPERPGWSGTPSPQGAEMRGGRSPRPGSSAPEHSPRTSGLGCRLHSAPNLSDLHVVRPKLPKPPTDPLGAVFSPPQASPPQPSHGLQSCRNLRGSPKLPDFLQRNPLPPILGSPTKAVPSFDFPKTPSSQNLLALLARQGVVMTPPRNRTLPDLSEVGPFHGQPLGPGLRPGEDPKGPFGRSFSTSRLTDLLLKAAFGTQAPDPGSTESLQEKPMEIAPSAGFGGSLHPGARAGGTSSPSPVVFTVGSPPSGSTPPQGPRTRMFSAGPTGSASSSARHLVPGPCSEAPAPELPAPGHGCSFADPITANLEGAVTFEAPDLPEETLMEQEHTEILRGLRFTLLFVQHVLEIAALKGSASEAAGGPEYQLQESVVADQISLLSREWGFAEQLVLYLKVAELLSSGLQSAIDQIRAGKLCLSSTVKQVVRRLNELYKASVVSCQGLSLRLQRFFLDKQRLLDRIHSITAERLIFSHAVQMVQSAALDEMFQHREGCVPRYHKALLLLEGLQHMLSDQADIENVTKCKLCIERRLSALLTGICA

MAPK8 (human) = MAPK8 (human) (UniProt P45983)
Chain of MAPK8 (human) (P45983 whole entry, looked up): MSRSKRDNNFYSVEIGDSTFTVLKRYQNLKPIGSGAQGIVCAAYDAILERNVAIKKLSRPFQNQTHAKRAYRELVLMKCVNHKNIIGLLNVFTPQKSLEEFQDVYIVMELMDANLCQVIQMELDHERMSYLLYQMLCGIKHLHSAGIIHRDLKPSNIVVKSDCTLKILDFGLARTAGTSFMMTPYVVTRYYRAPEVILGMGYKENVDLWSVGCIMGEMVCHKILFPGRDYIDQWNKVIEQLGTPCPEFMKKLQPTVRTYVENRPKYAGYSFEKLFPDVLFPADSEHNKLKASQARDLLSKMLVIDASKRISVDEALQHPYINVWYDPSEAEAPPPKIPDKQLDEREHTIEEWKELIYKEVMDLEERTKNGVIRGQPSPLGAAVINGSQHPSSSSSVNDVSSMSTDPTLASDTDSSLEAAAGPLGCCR

Chain of RIOK3 (human) (O14730 whole entry, looked up): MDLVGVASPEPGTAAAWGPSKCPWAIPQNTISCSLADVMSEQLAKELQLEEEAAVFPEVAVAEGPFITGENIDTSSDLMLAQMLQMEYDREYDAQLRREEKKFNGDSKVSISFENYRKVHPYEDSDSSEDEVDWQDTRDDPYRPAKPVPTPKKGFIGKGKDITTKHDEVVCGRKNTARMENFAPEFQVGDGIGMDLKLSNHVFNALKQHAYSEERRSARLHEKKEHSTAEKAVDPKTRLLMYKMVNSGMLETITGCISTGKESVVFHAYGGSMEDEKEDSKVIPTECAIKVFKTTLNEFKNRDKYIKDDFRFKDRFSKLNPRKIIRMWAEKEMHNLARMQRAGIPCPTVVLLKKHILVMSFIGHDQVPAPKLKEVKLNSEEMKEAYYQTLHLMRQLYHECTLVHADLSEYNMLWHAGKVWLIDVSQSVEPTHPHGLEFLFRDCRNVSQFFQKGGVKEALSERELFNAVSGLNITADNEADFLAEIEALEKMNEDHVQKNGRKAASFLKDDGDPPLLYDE

| SMILES | kinase still bound, per cent of control (TESK1 (human)) [%] | kinase still bound, per cent of control (PLK4 (human)) [%] | kinase still bound, per cent of control (NEK5 (human)) [%] | kinase still bound, per cent of control (PAK1 (human)) [%] | kinase still bound, per cent of control (RIOK3 (human)) [%] | kinase still bound, per cent of control (SLK (human)) [%] | kinase still bound, per cent of control (TNK1 (human)) [%] | kinase still bound, per cent of control [2] [%] | kinase still bound, per cent of control (MAP2K6 (human)) [%] | kinase still bound, per cent of control (TXK (human)) [%] | kinase still bound, per cent of control (FYN (human)) [%] | kinase still bound, per cent of control (PRKACA (human)) [%] | kinase still bound, per cent of control (LYN (human)) [%] | kinase still bound, per cent of control (MARK4 (human)) [%] | kinase still bound, per cent of control (MAP4K4 (human)) [%] | kinase still bound, per cent of control (MYO3B (human)) [%] | kinase still bound, per cent of control (BRSK2 (human)) [%] | kinase still bound, per cent of control (EPHA4 (human)) [%] | kinase still bound, per cent of control (MAP4K3 (human)) [%] | kinase still bound, per cent of control (ITK (human)) [%] | other results |
| --- | --- | --- | --- | --- | --- | --- | --- | --- | --- | --- | --- | --- | --- | --- | --- | --- | --- | --- | --- | --- | --- |
| Cc1n[nH]c2ccc(-c3cncc(OC[C@@H](N)Cc4c[nH]c5ccccc45)c3)cc12 | 100 | 100 | 100 | 6.2 | 2.7 | 100 | 100 | 5 | 100 | 100 | 100 | 0.85 | 100 | 100 | 2.2 | 100 | 100 | 100 | 9.5 | 100 | kinase still bound, per cent of control (MINK1 (human)): 6.2%; kinase still bound, per cent of control [1]: 10%; kinase still bound, per cent of control (CDKL2 (human)): 5.2%; kinase still bound, per cent of control (CDK15 (human)): 16%; kinase still bound, per cent of control (CSNK1E (human)): 0.05%; kinase still bound, per cent of control (ACVR2A (human)): 100%; kinase still bound, per cent of control (ROS1 (human)): 100%; kinase still bound, per cent of control (PRKACB (human)): 0.45%; kinase still bound, per cent of control (CDC42BPA (human)): 6.6%; kinase still bound, per cent of control (SYK (human)): 100%; kinase still bound, per cent of control (FGFR4 (human)): 100%; kinase still bound, per cent of control (RAF1 (human)): 100%; kinase still bound, per cent of control (PTK2 (human)): 100%; kinase still bound, per cent of control (FGFR1 (human)): 100%; kinase still bound, per cent of control (PKN1 (human)): 0%; kinase still bound, per cent of control (TNIK (human)): 3.2%; kinase still bound, per cent of control (ULK1 (human)): 22%; kinase still bound, per cent of control (MAPK8 (human)): 100% |
| CCN(CC)CCCCNc1ncc2cc(-c3cc(OC)cc(OC)c3)c(NC(=O)NC(C)(C)C)nc2n1 | 100 | 100 | 100 | 100 | 100 | 100 | 100 | 100 | 100 | 100 | 100 | 100 | 100 | 100 | 100 | 100 | 100 | 100 | 100 | 100 | kinase still bound, per cent of control (CSNK1E (human)): 100%; kinase still bound, per cent of control (ACVR2A (human)): 100%; kinase still bound, per cent of control (ROS1 (human)): 100%; kinase still bound, per cent of control (PRKACB (human)): 100%; kinase still bound, per cent of control (CDC42BPA (human)): 100%; kinase still bound, per cent of control (SYK (human)): 100%; kinase still bound, per cent of control (RAF1 (human)): 100%; kinase still bound, per cent of control (PTK2 (human)): 100%; kinase still bound, per cent of control (FGFR1 (human)): 0.4%; kinase still bound, per cent of control (PKN1 (human)): 100%; kinase still bound, per cent of control (TNIK (human)): 100%; kinase still bound, per cent of control (MAPK8 (human)): 100% |
| CNC(=O)c1ccc(Nc2cc(Nc3ccccc3S(=O)(=O)C(C)C)c3cc[nH]c3n2)nc1 | 30 | 4.5 | 100 | 100 | 2.9 | 0 | 4 | 0.65 | 29 | 33 | 8.1 | 100 | 22 | 4 | 31 | 100 | 100 | 100 | 1 | 0.15 | kinase still bound, per cent of control (MINK1 (human)): 100%; kinase still bound, per cent of control [1]: 1.2%; kinase still bound, per cent of control (CDKL2 (human)): 100%; kinase still bound, per cent of control (CDK15 (human)): 18%; kinase still bound, per cent of control (CSNK1E (human)): 29%; kinase still bound, per cent of control (ACVR2A (human)): 100%; kinase still bound, per cent of control (ROS1 (human)): 0.85%; kinase still bound, per cent of control (PRKACB (human)): 13%; kinase still bound, per cent of control (CDC42BPA (human)): 100%; kinase still bound, per cent of control (SYK (human)): 2.6%; kinase still bound, per cent of control (FGFR4 (human)): 100%; kinase still bound, per cent of control (RAF1 (human)): 100%; kinase still bound, per cent of control (PTK2 (human)): 0%; kinase still bound, per cent of control (FGFR1 (human)): 11%; kinase still bound, per cent of control (PKN1 (human)): 0%; kinase still bound, per cent of control (TNIK (human)): 19%; kinase still bound, per cent of control (ULK1 (human)): 7.2%; kinase still bound, per cent of control (MAPK8 (human)): 7.3% |
| C=CC(=O)Nc1ccc(CN(C(=O)Nc2c(Cl)c(OC)cc(OC)c2Cl)c2cc(Nc3ccc(N4CCN(C)CC4)cc3)ncn2)cc1 | 100 | 100 | 100 | 100 | 100 | 9.8 | 28 | 16 | 100 | 16 | 5.6 | 100 | 5 | 100 | 100 | 100 | 100 | 100 | 7.4 | 16 | kinase still bound, per cent of control (MINK1 (human)): 100%; kinase still bound, per cent of control [1]: 100%; kinase still bound, per cent of control (CDKL2 (human)): 0.35%; kinase still bound, per cent of control (CDK15 (human)): 100%; kinase still bound, per cent of control (CSNK1E (human)): 100%; kinase still bound, per cent of control (ACVR2A (human)): 100%; kinase still bound, per cent of control (ROS1 (human)): 100%; kinase still bound, per cent of control (PRKACB (human)): 100%; kinase still bound, per cent of control (CDC42BPA (human)): 100%; kinase still bound, per cent of control (SYK (human)): 100%; kinase still bound, per cent of control (FGFR4 (human)): 0.1%; kinase still bound, per cent of control (RAF1 (human)): 100%; kinase still bound, per cent of control (PTK2 (human)): 100%; kinase still bound, per cent of control (FGFR1 (human)): 2.2%; kinase still bound, per cent of control (PKN1 (human)): 100%; kinase still bound, per cent of control (TNIK (human)): 100%; kinase still bound, per cent of control (ULK1 (human)): 100%; kinase still bound, per cent of control (MAPK8 (human)): 100% |

Source: the kinase profiling compilation of Christmann-Franck et al. (2016)
